Patent US20230183237A1, “COMPETITIVE AND NONCOMPETITIVE INHIBITORS OF THE MUSCARINIC ACETYLCHOLINE RECEPTOR M5” (Vanderbilt University, priority 2020, published 2023)
pIC50: −log10 of the molar value.

Target: T1, hM5 (Homo sapiens, UniProt P08912)
T1 construct: expressed in transfected cells
T1 sequence (P08912 1-532): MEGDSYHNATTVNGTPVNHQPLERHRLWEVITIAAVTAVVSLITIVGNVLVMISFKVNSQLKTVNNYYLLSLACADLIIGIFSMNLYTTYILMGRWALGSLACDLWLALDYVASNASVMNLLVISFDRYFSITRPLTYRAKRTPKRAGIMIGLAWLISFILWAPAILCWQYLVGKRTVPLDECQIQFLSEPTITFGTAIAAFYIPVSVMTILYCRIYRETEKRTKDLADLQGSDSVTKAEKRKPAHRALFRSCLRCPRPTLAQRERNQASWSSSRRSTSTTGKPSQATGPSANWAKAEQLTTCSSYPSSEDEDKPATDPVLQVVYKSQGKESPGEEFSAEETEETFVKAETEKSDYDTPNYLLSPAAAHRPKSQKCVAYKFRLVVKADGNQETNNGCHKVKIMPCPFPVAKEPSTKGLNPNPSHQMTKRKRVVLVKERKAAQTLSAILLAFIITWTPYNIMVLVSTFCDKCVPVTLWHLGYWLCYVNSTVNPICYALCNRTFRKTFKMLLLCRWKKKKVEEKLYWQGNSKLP
Assay: Calcium mobilization concentration-response (IC50 vs EC80 acetylcholine), CHO hM5
Type: cell-based
Conditions: CELL LINE hM5; vs EC80 acetylcholine; read-out: IC50
In short: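 IC50 values derive from percent maximal acetylcholine response after an EC80 ACh addition, measured as kinetic calcium fluorescence (static ratio, max−min). Test compounds were added 140 s before agonist. Cells: stable hM5-CHO in HEPES-buffered HBSS with 2.5 mM probenecid, pH 7.4; ≥3 independent triplicate determinations.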

**Q.** How did the pIC50 turn out when Cc1cc2ncccc2cc1C1CCN(S(=O)(=O)c2cnn(C)c2CC#N)CC1 [Compound 461, 2-(1-methyl-4-((4-(7-methylquinolin-6-yl)piperidin-1-yl)sulfonyl)-1H-pyrazol-5-yl)acetonitrile] was run?
**A.** Its pIC50 is 5.89.

**Q.** Cc1cc2ncnn2cc1C1(F)CCN(S(=O)(=O)c2cnn(C)c2C#N)CC1 [Compound 462, 4-((4-fluoro-4-(7-methyl-[1,2,4]triazolo[1,5-a]pyridin-6-yl)piperidin-1-yl)sulfonyl)-1-methyl-1H-pyrazole-5-carbonitrile] was tested. Which pIC50 did it give?
**A.** Its pIC50 is 7.07.

**Q.** Cc1nc2n(c1C1CCN(S(=O)(=O)c3cnn(C)c3Cl)CC1)CCCC2 [Compound 463, 3-(1-((5-Chloro-1-methyl-1H-pyrazol-4-yl)sulfonyl)piperidin-4-yl)-2-methyl-5,6,7,8-tetrahydroimidazo[1,2-a]pyridine] was tested. Which pIC50 did it give?
**A.** The pIC50 was 6.60.

**Q.** Cc1nc2n(c1C1CCN(S(=O)(=O)c3cnn(C)c3C)CC1)CCCC2 [Compound 464, 3-(1-((1,5-dimethyl-1H-pyrazol-4-yl)sulfonyl)piperidin-4-yl)-2-methyl-5,6,7,8-tetrahydroimidazo[1,2-a]pyridine] was tested. Which pIC50 did it give?
**A.** The pIC50 was 6.56.

**Q.** Cc1nc2n(c1C1CCN(S(=O)(=O)c3cnn(C)c3C(F)F)CC1)CCCC2 [Compound 465, 3-(1-((5-(difluoromethyl)-1-methyl-1H-pyrazol-4-yl)sulfonyl)piperidin-4-yl)-2-methyl-5,6,7,8-tetrahydroimidazo[1,2-a]pyridine] was tested. Which pIC50 did it give?
**A.** The pIC50 was 5.16.

**Q.** Cc1nc2n(c1C1CCN(S(=O)(=O)c3cnn(C)c3CC#N)CC1)CCCC2 [Compound 466, 2-(1-methyl-4-((4-(2-methyl-5,6,7,8-tetrahydroimidazo[1,2-a]pyridin-3-yl)piperidin-1-yl)sulfonyl)-1H-pyrazol-5-yl)acetonitrile] was tested. Which pIC50 did it give?
**A.** The pIC50 was under 5.00.

**Q.** Cc1ncc(S(=O)(=O)N2CCC(c3cc(F)c4ncnn4c3)CC2)n1C [Compound 467, 6-(1-((1,2-dimethyl-1H-imidazol-5-yl)sulfonyl)piperidin-4-yl)-8-fluoro-[1,2,4]triazolo[1,5-a]pyridine] was tested. Which pIC50 did it give?
**A.** The pIC50 was 5.38.

**Q.** Cc1cc2ncnn2cc1C1=C(C#N)CN(S(=O)(=O)c2cnn(C)c2C)CC1 [Compound 468, 1-((1,5-dimethyl-1H-pyrazol-4-yl)sulfonyl)-4-(7-methyl-[1,2,4]triazolo[1,5-a]pyridin-6-yl)-1,2,5,6-tetrahydropyridine-3-carbonitrile] was tested. Which pIC50 did it give?
**A.** Its pIC50 is 5.79.

**Q.** How did the pIC50 turn out when Cc1cc2ncnn2cc1C1=C(C#N)CN(S(=O)(=O)c2cnn(C)c2Cl)CC1 [Compound 469, 1-((5-chloro-1-methyl-1H-pyrazol-4-yl)sulfonyl)-4-(7-methyl-[1,2,4]triazolo[1,5-a]pyridin-6-yl)-1,2,5,6-tetrahydropyridine-3-carbonitrile] was run?
**A.** The pIC50 was 5.79.

**Q.** How did the pIC50 turn out when Cc1cc2ccnn2cc1C1CCN(S(=O)(=O)c2cnn(C)c2Cl)CC1 [Compound 470, 6-(1-((5-chloro-1-methyl-1H-pyrazol-4-yl)sulfonyl)piperidin-4-yl)-5-methylpyrazolo[1,5-a]pyridine] was run?
**A.** The pIC50 was 7.03.

**Q.** How did the pIC50 turn out when Cc1c(S(=O)(=O)N2CCC(c3cn4ncnc4cc3C(=O)N(C)C)CC2)cnn1C [Compound 471, 6-(1-((1,5-dimethyl-1H-pyrazol-4-yl)sulfonyl)piperidin-4-yl)-N,N-dimethyl-[1,2,4]triazolo[1,5-a]pyridine-7-carboxamide] was run?
**A.** The pIC50 was under 5.00.

**Q.** Cc1c(S(=O)(=O)N2CCC(c3cn4ncnc4cc3C(C)(C)O)CC2)cnn1C [Compound 472, 2-(6-(1-((1,5-dimethyl-1H-pyrazol-4-yl)sulfonyl)piperidin-4-yl)-[1,2,4]triazolo[1,5-a]pyridin-7-yl)propan-2-ol] was tested. Which pIC50 did it give?
**A.** The pIC50 was under 5.00.

**Q.** How did the pIC50 turn out when [2H]C1([2H])CC(c2cn3ncnc3c(F)c2C)CC([2H])([2H])N1S(=O)(=O)c1cnn(C)c1C(F)F [Compound 474, 6-(1-((5-(Difluoromethyl)-1-methyl-1H-pyrazol-4-yl)sulfonyl)piperidin-4-yl-2,2,6,6-d4)-8-fluoro-7-methyl-[1,2,4]triazolo[1,5-a]pyridine] was run?
**A.** Its pIC50 is 7.96.

**Q.** With [2H]C1([2H])CC(c2cn3ncnc3cc2F)CC([2H])([2H])N1S(=O)(=O)c1c(C)nn(C)c1Cl [Compound 475, 6-(1-((5-chloro-1,3-dimethyl-1H-pyrazol-4-yl)sulfonyl)piperidin-4-yl-2,2,6,6-d4)-7-fluoro-[1,2,4]triazolo[1,5-a]pyridine] as the compound, how does the pIC50 read?
**A.** Its pIC50 is 7.02.

**Q.** [2H]C1([2H])CC(c2cn3ncnc3cc2F)CC([2H])([2H])N1S(=O)(=O)c1cnn(C)c1C(F)F [Compound 476, 6-(1-((5-(difluoromethyl)-1-methyl-1H-pyrazol-4-yl)sulfonyl)piperidin-4-yl-2,2,6,6-d4)-7-fluoro-[1,2,4]triazolo[1,5-a]pyridine] was tested. Which pIC50 did it give?
**A.** Its pIC50 is 7.04.

**Q.** How did the pIC50 turn out when [2H]C1([2H])CC(c2cn3ncnc3cc2F)CC([2H])([2H])N1S(=O)(=O)c1cnn2c1CCC2 [Compound 478, 6-(1-((5,6-dihydro-4H-pyrrolo[1,2-b]pyrazol-3-yl)sulfonyl)piperidin-4-yl-2,2,6,6-d4)-7-fluoro-[1,2,4]triazolo[1,5-a]pyridine] was run?
**A.** The pIC50 was 7.70.

**Q.** How did the pIC50 turn out when Cc1c(S(=O)(=O)N2CCC(c3cn4ncnc4cc3C(=O)O)CC2)cnn1C [Compound 479, 6-(1-((1,5-dimethyl-1H-pyrazol-4-yl)sulfonyl)piperidin-4-yl)-[1,2,4]triazolo[1,5-a]pyridine-7-carboxylic acid] was run?
**A.** The pIC50 was under 5.00.

**Q.** With Cc1ncc(S(=O)(=O)N2CCC(c3ccc4ncnn4c3)CC2)s1 [Compound 480, 5-((4-([1,2,4]triazolo[1,5-a]pyridin-6-yl)piperidin-1-yl)sulfonyl)-2-methylthiazole] as the compound, how does the pIC50 read?
**A.** The pIC50 was under 5.00.

**Q.** With Cc1cc2ccnn2cc1C1CCN(S(=O)(=O)c2cnn(C)c2C#N)CC1 [Compound 481, 1-methyl-4-((4-(5-methylpyrazolo[1,5-a]pyridin-6-yl)piperidin-1-yl)sulfonyl)-1-pyrazole-5-carbonitrile] as the compound, how does the pIC50 read?
**A.** The pIC50 was 6.52.

**Q.** With Cn1ncc(S(=O)(=O)N2CCC(c3cn4ncnc4cc3C(F)F)CC2)c1C#N [Compound 482, 4-((4-(7-(difluoromethyl)-[1,2,4]triazolo[1,5-a]pyridin-6-yl)piperidin-1-yl)sulfonyl)-1-methyl-1H-pyrazole-5-carbonitrile] as the compound, how does the pIC50 read?
**A.** The pIC50 was 7.21.

**Q.** How did the pIC50 turn out when Cc1cc(S(=O)(=O)N2CCC(c3cn4ncnc4cc3Cl)CC2)sn1 [Compound 483, 5-((4-(7-chloro-[1,2,4]triazolo[1,5-a]pyridin-6-yl)piperidin-1-yl)sulfonyl)-3-methylisothiazole] was run?
**A.** The pIC50 was 8.22.

**Q.** With Cc1cc(S(=O)(=O)N2CCC(c3cn4ncnc4c(F)c3C)CC2)sn1 [Compound 485, 5-((4-(8-fluoro-7-methyl-[1,2,4]triazolo[1,5-a]pyridin-6-yl)piperidin-1-yl)sulfonyl)-3-methylisothiazole] as the compound, how does the pIC50 read?
**A.** The pIC50 was 7.77.

**Q.** With Cc1ncc(S(=O)(=O)N2CCC(c3cn4ncnc4c(F)c3C)CC2)o1 [Compound 486, 5-((4-(8-fluoro-7-methyl-[1,2,4]triazolo[1,5-a]pyridin-6-yl)piperidin-1-yl)sulfonyl)-2-methyloxazole] as the compound, how does the pIC50 read?
**A.** Its pIC50 is 6.50.

**Q.** With Cc1cc(S(=O)(=O)N2CCC(c3nn4ncnc4cc3C)CC2)sn1 [Compound 487, 3-methyl-5-((4-(7-methyl-[1,2,4]triazolo[1,5-b]pyridazin-6-yl)piperidin-1-yl)sulfonyl)isothiazole] as the compound, how does the pIC50 read?
**A.** Its pIC50 is 6.46.

**Q.** Cc1ncc(S(=O)(=O)N2CCC(c3nn4ncnc4cc3C)CC2)o1 [Compound 488, 2-methyl-5-((4-(7-methyl-[1,2,4]triazolo[1,5-b]pyridazin-6-yl)piperidin-1-yl)sulfonyl)oxazole] was tested. Which pIC50 did it give?
**A.** Its pIC50 is 5.20.

**Q.** Cn1ncc(S(=O)(=O)N2CC=C(c3c4ccccc4nn3C)CC2)c1Cl [Compound 489, 3-(1-((5-chloro-1-methyl-1H-pyrazol-4-yl)sulfonyl)-1,2,3,6-tetrahydropyridin-4-yl)-2-methyl-2H-indazole] was tested. Which pIC50 did it give?
**A.** Its pIC50 is 5.89.

**Q.** Cn1ncc(S(=O)(=O)N2CC=C(c3c4ccccc4nn3C)CC2)c1C#N [Compound 490, 1-methyl-4-((4-(2-methyl-2H-indazol-3-yl)-3,6-dihydropyridin-1(2H)-yl)sulfonyl)-1H-pyrazole-5-carbonitrile] was tested. Which pIC50 did it give?
**A.** Its pIC50 is 5.14.

**Q.** With Cc1cc(S(=O)(=O)N2CCC(c3cn4ncnc4cc3C)CC2)sn1 [Compound 491, 3-methyl-5-((4-(7-methyl-[1,2,4]triazolo[1,5-a]pyridin-6-yl)piperidin-1-yl)sulfonyl)isothiazole] as the compound, how does the pIC50 read?
**A.** The pIC50 was 8.22.

**Q.** Cc1ncc(S(=O)(=O)N2CCC(c3cn4ncnc4cc3C)CC2)o1 [Compound 492, 2-methyl-5-((4-(7-methyl-[1,2,4]triazolo[1,5-a]pyridin-6-yl)piperidin-1-yl)sulfonyl)oxazole] was tested. Which pIC50 did it give?
**A.** Its pIC50 is 7.12.

**Q.** With CCc1cc2ncnn2cc1C1CCN(S(=O)(=O)c2cc(C)ns2)CC1 [Compound 493, 5-((4-(7-ethyl-[1,2,4]triazolo[1,5-a]pyridin-6-yl)piperidin-1-yl)sulfonyl)-3-methylisothiazole] as the compound, how does the pIC50 read?
**A.** The pIC50 was 7.19.

**Q.** Cc1cc(S(=O)(=O)N2CCC(c3cn4ncnc4cc3C(F)F)CC2)sn1 [Compound 494, 5-((4-(7-(difluoromethyl)-[1,2,4]triazolo[1,5-a]pyridin-6-yl)piperidin-1-yl)sulfonyl)-3-methylisothiazole] was tested. Which pIC50 did it give?
**A.** The pIC50 was 7.68.

**Q.** With Cc1cc(S(=O)(=O)N2CCC(c3cn4ncnc4cc3C(F)(F)F)CC2)sn1 [Compound 495, 3-methyl-5-((4-(7-(trifluoromethyl)-[1,2,4]triazolo[1,5-a]pyridin-6-yl)piperidin-1-yl)sulfonyl)isothiazole] as the compound, how does the pIC50 read?
**A.** The pIC50 was 7.34.
